# Reference: patent US20020018768A1, “Control of gene expression” (YISSUM RESEARCH DEVELOPMENT COMPANY OF THE HEBREW …, priority 1999, published 2002)
# Tested on: CFTR transcripts carrying the 3849+10 kb C→T mutation in 091398K cells
# Assay: Splicing of native CFTR transcripts in 091398K nasal polyp epithelial cell line after transient transfection with splicing factors (DAC-30)
# Type: cell-based
# Conditions: transfection efficiency ~60%, untreated 21%
# Description: A polyp sample from a CF patient, compound heterozygous for the splicing mutation 3849+10 kb C→T and the W 1282X mutations was obtained. This patient suffered from nasal polyps and underwent nasal polypectomy. An epithelial cell line (091398K) was established from the polyp sample in collaboration with Dr. J. Yankaskas from the University of North Carolina. […] Thus a system in which the effect of splicing factors or) a native CFTR gene could be studied, was established.
# Transient transfections of 091398 k cells with cellular factors were performed, using DAC-30. […] The viral factor E4-oRF3 slightly promoted exon inclusion and led to an increase in, the level of aberrantly spliced transcripts (21% to 28%). Thus, the mean effect could have reached ˜35%.
substance,measurement,value
"ASF/SF2: cellular SR protein splicing factor, overexpressed by transient transfection",level of aberrantly spliced CFTR transcripts after overexpression,11%
